Data on 5 compounds can be found in patent US20260176320A1, “MODULATORS OF G-PROTEIN COUPLED RECEPTORS” (priority 2018, published 2026).

pEC50: −log10 of the molar value. Like-named read-outs stand apart in the source and are kept apart here. Bounds are passed on as bounds.

The test system of series [1] is mice. Kind of series: Conditioned taste aversion (CTA) in mice. As to conditions: s.c., 30 nmol/kg, saccharine preference vs vehicle. Format: in vivo, mouse. The protocol:
A value of CTA=0.0-0.6 indicates significant aversion to a compound. The conditioned taste aversion assay measures the preference for a dilute saccharin solution that is associated with compound administration.
One week before start of experiment (Day-7), animals were transferred to single house double grommet cages. A 50 ml water bottle was placed, and consistently replaced when refilled in the same grommet to habituate the animal to a “water” side. After 7 days of baseline water consumption, animals began the taste preference procedure. On Day 1, the animals were weighed and deprived of water at […]. On acquisition day (Day 2), mice had access to a single bottle containing 0.15% saccharin solution, on the opposite side to the “water” habituated side and allowed to consume for 3 h, from 6 pm until 9 pm. The saccharine bottles were then removed and weighed to record the 3 h consumption. […] On Day 3, the water was removed and weighed at 6 pm. On Day 4, both saccharine and water bottles were weighed and returned simultaneously to respective grommet at 6 pm. On Day 5, the bottles were removed at 6 pm and weighed. Saccharine consumption was measured as a percent of the total amount of fluid consumed. The reduction of saccharin consumption during the retrieval was used as a measure of CTA strength. Liraglutide and semaglutide were used as positive controls.

The next series addresses T1, GIP-R (Homo sapiens, UniProt P48546).
T1 sequence (P48546 22-466): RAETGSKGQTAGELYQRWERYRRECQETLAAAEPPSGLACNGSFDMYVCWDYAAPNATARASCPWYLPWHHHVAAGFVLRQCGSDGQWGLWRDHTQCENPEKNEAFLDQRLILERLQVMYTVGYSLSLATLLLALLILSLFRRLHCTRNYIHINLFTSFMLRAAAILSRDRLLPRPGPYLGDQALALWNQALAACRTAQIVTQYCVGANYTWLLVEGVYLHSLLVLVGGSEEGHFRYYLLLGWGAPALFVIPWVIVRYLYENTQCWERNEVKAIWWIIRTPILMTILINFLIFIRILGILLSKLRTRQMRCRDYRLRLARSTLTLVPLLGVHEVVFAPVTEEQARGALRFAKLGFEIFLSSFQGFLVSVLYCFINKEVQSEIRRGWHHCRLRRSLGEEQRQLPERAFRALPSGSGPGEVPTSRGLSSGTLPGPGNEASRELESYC
The series is described as follows: HitHunter cAMP assay (GIP-R). The series is classed as cell-based. As to conditions: for EC50: EC50 GIP-R/nM; for Emax: read-out: (Emax) GIP-R. The procedure, abridged: (§1)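 cAMP, luminescence read: agonist 22-pt 2× dilution in DMSO, duplicate, 30 min RT on 10,000 cells/well in 1×HBSS/10 mM HEPES/625 μM IBMX/0.2% BSA; anti-cAMP reagent 1 h RT dark, then O/N RT dark before read.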

In series [2] the test system is mice. Kind of series: Glucose tolerance test (GTT). Format: in vivo, mouse. As to conditions: 24 h GTT, s.c., percent of vehicle. In short, it runs like this: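 Compounds diluted in PBS from 1 mM DMSO stocks and given subcutaneously 15 min (5-6 h fast), 4 h (16 h overnight fast), 16 h or 24 h before intraperitoneal glucose (2 g/kg). Tail blood glucose read at 10–120 min post-glucose, at least 6 mice per time-point. Glucose AUC over time determined.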

In series [3] the target is T2, GLP-1R (Homo sapiens, UniProt P43220). Kind of series: PathHunter β-arrestin assay. The series is classed as cell-based. In short, it runs like this:
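Luminescence read-out of β-arrestin recruitment (enzyme-fragment complementation detection, 3 h at room temperature in the dark) after 90 min agonist stimulation at 37 °C. Agonists tested as 22-point 2× serial dilutions in duplicate, in medium containing 0.2% BSA.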

In series [4] the target is T2, GLP-1R. The series is described as follows: HitHunter cAMP assay (GLP-1R). The series is classed as cell-based. As to conditions: for EC50: EC50 GLP-1R/nM; for Emax: read-out: (Emax) GLP-1R. In short, it runs like this: as §1
Series [5] deals with T2, GLP-1R. As to conditions: general statement; cited from earlier work.
In series [6] the test system is mice. To be noted: general statement; cited from earlier work.

The EC50 is the concentration giving half of the maximal effect. Lower therefore signals greater potency. For orientation: Emax means the maximal effect, on the per cent scale that the assay sets. As usually defined, the pEC50 is the EC50 on a negative log10 scale, so that one unit is a factor of ten. A high value points to a small EC50.

T2 sequence (P43220 24-463): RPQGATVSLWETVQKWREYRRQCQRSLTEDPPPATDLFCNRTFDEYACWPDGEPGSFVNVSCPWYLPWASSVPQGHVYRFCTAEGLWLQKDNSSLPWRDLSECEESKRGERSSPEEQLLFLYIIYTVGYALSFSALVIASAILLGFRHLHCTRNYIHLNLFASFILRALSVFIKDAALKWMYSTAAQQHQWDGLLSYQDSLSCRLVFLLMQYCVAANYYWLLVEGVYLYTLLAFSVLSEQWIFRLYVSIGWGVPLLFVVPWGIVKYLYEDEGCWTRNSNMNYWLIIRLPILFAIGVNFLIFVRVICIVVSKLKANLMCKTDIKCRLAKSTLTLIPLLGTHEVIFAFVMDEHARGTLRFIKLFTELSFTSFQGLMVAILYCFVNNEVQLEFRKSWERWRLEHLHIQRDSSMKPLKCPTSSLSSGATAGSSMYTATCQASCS

For `CCCCCCCCCCCCCCCC(=O)N[C@@H](CCC(=O)NCCCC[C@H](NC(=O)[C@H](CO)NC(=O)[C@@H]1CCCN1C(=O)[C@@H]1CCCN1C(=O)[C@@H]1CCCN1C(=O)[C@H](C)NC(=O)CNC(=O)[C@H](CO)NC(=O)[C@H](CO)NC(=O)[C@@H]1CCCN1C(=O)CNC(=O)CNC(=O)[C@H](C)NC(=O)[C@H](CC(C)C)NC(=O)[C@H](CC(C)C)NC(=O)[C@H](Cc1c[nH]c2ccccc12)NC(=O)[C@H](CC(N)=O)NC(=O)[C@@H](NC(=O)[C@H](Cc1ccccc1)NC(=O)[C@H](CCC(=O)O)NC(=O)C(C)(C)NC(=O)[C@H](C)NC(=O)[C@H](C)NC(=O)[C@H](CCC(N)=O)NC(=O)[C@H](CCCCN)NC(=O)[C@H](CC(=O)O)NC(=O)[C@H](CC(C)C)NC(=O)[C@H](Cc1ccc(O)cc1)NC(=O)[C@@H](NC(=O)[C@H](CO)NC(=O)[C@H](Cc1ccc(O)cc1)NC(=O)[C@H](CC(=O)O)NC(=O)[C@H](CO)NC(=O)[C@@H](NC(=O)[C@H](Cc1ccccc1)NC(=O)[C@@H](NC(=O)CNC(=O)[C@H](CCC(=O)O)NC(=O)CSCC(=O)NCCN1C(=O)C[C@H](C)C1=O)[C@@H](C)O)[C@@H](C)O)[C@@H](C)CC)C(C)C)C(N)=O)C(=O)O` [Compound 91], the CTA score with mice [1] is on record as 4 (Score 4 = 76-100%). Also, the EC50 on GIP-R (Table 3, cAMP) was 1 to 10 nM; at GIP-R (Table 3A, cAMP), 1 to 10 nM; on GLP-1R [4] (Table 3, cAMP), 1 to 10 nM; at GLP-1R [4] (Table 3A, cAMP), 1 to 10 nM. Besides, the Emax on GIP-R (Table 3, cAMP) was determined as 85%; at GIP-R (Table 3A, cAMP), 85%; on GLP-1R [4] (Table 3, cAMP), 98%; on GLP-1R [4] (Table 3A, cAMP), 98%. In addition, in the series with mice [2] (dose range 2-5 nmol/kg), the AUC score is reported as 3 (AUC score 3 = 51-75%). Moreover, the pEC50 on GLP-1R [3] is less than 6.00.

Turning to `CCCCCCCCCCCCCCCC(=O)N[C@@H](CCC(=O)NCCCC[C@H](NC(=O)[C@H](CO)NC(=O)[C@@H]1CCCN1C(=O)[C@@H]1CCCN1C(=O)[C@@H]1CCCN1C(=O)[C@H](C)NC(=O)CNC(=O)[C@H](CO)NC(=O)[C@H](CO)NC(=O)[C@@H]1CCCN1C(=O)CNC(=O)CNC(=O)[C@H](C)NC(=O)[C@H](CC(C)C)NC(=O)[C@H](CC(C)C)NC(=O)[C@H](Cc1c[nH]c2ccccc12)NC(=O)[C@H](CC(N)=O)NC(=O)[C@@H](NC(=O)[C@H](Cc1ccccc1)NC(=O)[C@H](CCC(=O)O)NC(=O)C(C)(C)NC(=O)[C@H](C)NC(=O)[C@H](C)NC(=O)[C@H](CCC(N)=O)NC(=O)[C@H](CCCCN)NC(=O)[C@H](CC(=O)O)NC(=O)[C@H](CC(C)C)NC(=O)[C@H](Cc1ccc(O)cc1)NC(=O)[C@@H](NC(=O)[C@H](CO)NC(=O)[C@H](Cc1ccc(O)cc1)NC(=O)[C@H](CC(=O)O)NC(=O)[C@H](CO)NC(=O)[C@@H](NC(=O)[C@H](Cc1ccccc1)NC(=O)[C@@H](NC(=O)CNC(=O)[C@H](CCC(=O)O)NC(=O)CSCC(=O)NCCN1C(=O)[C@@H](C)[C@@H](C)C1=O)[C@@H](C)O)[C@@H](C)O)[C@@H](C)CC)C(C)C)C(N)=O)C(=O)O` [Compound 96], the CTA score in the series with mice [1] was 4 (Score 4 = 76-100%). Moreover, the EC50 on GIP-R (Table 3, cAMP) was in the range of 0.1 to 1 nM; on GIP-R (Table 3A, cAMP), 0.1 to 1 nM; on GLP-1R [4] (Table 3, cAMP) it was 1 to 10 nM; on GLP-1R [4] (Table 3A, cAMP), 1 to 10 nM. Moreover, the Emax on GIP-R (Table 3, cAMP) is 90%; at GIP-R (Table 3A, cAMP), 90%; on GLP-1R [4] (Table 3, cAMP), 94%; on GLP-1R [4] (Table 3A, cAMP), 94%. The AUC score with mice [2] (dose range 5.1-15 nmol/kg) was 4 (AUC score 4 = 76-100%). At GLP-1R [3], this compound gave a negative logarithm of the EC50 (pEC50) of less than 6.00.

For glucagon-like peptide-1 [GLP-1], the β-arrestin recruitment entry on GLP-1R [5] is on record as “potent recruiters of β-arrestin”.

For `CCCCCCCCCCCCCCCC(=O)N[C@@H](CCC(=O)NCCCC[C@H](NC(=O)[C@H](C)NC(=O)[C@H](C)NC(=O)[C@H](CCC(N)=O)NC(=O)CNC(=O)[C@H](CCC(=O)O)NC(=O)[C@H](CC(C)C)NC(=O)[C@H](Cc1ccc(O)cc1)NC(=O)[C@H](CO)NC(=O)[C@H](CO)NC(=O)[C@@H](NC(=O)[C@H](CC(=O)O)NC(=O)[C@H](CO)NC(=O)[C@@H](NC(=O)[C@H](Cc1ccccc1)NC(=O)[C@@H](NC(=O)CNC(=O)[C@H](CCC(=O)O)NC(=O)[C@H](C)NC(=O)[C@@H](N)Cc1cnc[nH]1)[C@@H](C)O)[C@@H](C)O)C(C)C)C(=O)N[C@@H](CCC(=O)O)C(=O)N[C@@H](Cc1ccccc1)C(=O)N[C@H](C(=O)N[C@@H](C)C(=O)N[C@@H](Cc1c[nH]c2ccccc12)C(=O)N[C@@H](CC(C)C)C(=O)N[C@H](C(=O)N[C@@H](CCCNC(=N)N)C(=O)NCC(=O)N[C@@H](CCCNC(=N)N)C(=O)NCC(=O)O)C(C)C)[C@@H](C)CC)C(=O)O` [Liraglutide, liraglutide], the “signal in conditioned taste aversion models” value in the series with mice [6] is given as “strong signal in conditioned taste aversion models”.

Turning to `CCCCCCCCCCCCCCCC(=O)N[C@@H](CCC(=O)NCCCC[C@H](NC(=O)[C@H](CO)NC(=O)[C@@H]1CCCN1C(=O)[C@@H]1CCCN1C(=O)[C@@H]1CCCN1C(=O)[C@H](C)NC(=O)CNC(=O)[C@H](CO)NC(=O)[C@H](CO)NC(=O)[C@@H]1CCCN1C(=O)CNC(=O)CNC(=O)[C@H](C)NC(=O)[C@H](CC(C)C)NC(=O)[C@H](CC(C)C)NC(=O)[C@H](Cc1c[nH]c2ccccc12)NC(=O)[C@H](CC(N)=O)NC(=O)[C@@H](NC(=O)[C@H](Cc1ccccc1)NC(=O)[C@H](CCC(=O)O)NC(=O)C(C)(C)NC(=O)[C@H](C)NC(=O)[C@H](C)NC(=O)[C@H](CCC(N)=O)NC(=O)[C@H](CCCCN)NC(=O)[C@H](CC(=O)O)NC(=O)[C@H](CC(C)C)NC(=O)[C@H](Cc1ccc(O)cc1)NC(=O)[C@@H](NC(=O)[C@H](CO)NC(=O)[C@H](Cc1ccc(O)cc1)NC(=O)[C@H](CC(=O)O)NC(=O)[C@H](CO)NC(=O)[C@@H](NC(=O)[C@H](Cc1ccccc1)NC(=O)[C@@H](NC(=O)CNC(=O)[C@H](CCC(=O)O)NC(=O)CCNC(=O)CN1CCCC1=O)[C@@H](C)O)[C@@H](C)O)[C@@H](C)CC)C(C)C)C(N)=O)C(=O)O` [Compound 264], the CTA score in the series on mice [1] is 1 (Score 1 = 0-25%). Moreover, the concentration giving a half-maximal response (EC50) at GIP-R (Table 3A, cAMP) lay within 1 to 10 nM. In addition, the results for the Emax at GIP-R and on GLP-1R [4] were 90% and 100%, respectively. Besides, in the series with mice [2] (dose range 2-5 nmol/kg), the AUC score was 3 (AUC score 3 = 51-75%). The figures for the pEC50 on GLP-1R [3] and at GLP-1R [4] were greater than 8.00 and greater than 10.00, respectively.
